The values that follow come from PMC4279419, “Angiostatic, tumor inflammatory and anti-tumor effects of CXCL4^47–70 and CXCL4L1^47–70 in an EGF-dependent breast cancer model” (Oncotarget, 2014).

Test [1] deals with bovine aortic endothelial cells (GM7373). Nature of the test: GM7373 proliferation assay (cell counting). The class given is cell-based. Conditions: peptide 0.4 μg/ml, 0.4% FCS, 24 h, cell counts, mean ± s.e.m., n=3; for GM7373 proliferation relative to EGF alone (100%): EGF 10 ng/ml; for GM7373 proliferation relative to FGF2 alone (100%): FGF2 10 ng/ml. How it is done: Cell proliferation assays on GM7373 cells were performed as described. Briefly, subconfluent cultures of GM7373 cells were seeded in 96-well dishes at 65 × 10^3 cells/cm^2. After 16 h, cells were incubated in triplicate in fresh medium containing 0.4% FCS plus FGF1 (30 ng/ml), FGF2 (10 ng/ml), FGF8 (30 ng/ml), EGF (10 ng/ml), VEGF (30 ng/ml), 12-O-tetradecanoyl phorbol 13-acetate (TPA, 10 ng/ml) or 10% FCS in the absence or in the presence of 400 ng/ml of CXCL4^47–70 or CXCL4L1^47–70. After 24 h, cells were trypsinized and counted in a Bürker chamber. Data were expressed as percentages of cell proliferation measured in the presence of the mitogenic stimulus alone.

In test [2] the test system is human retinal microvascular endothelial cells (HMVEC). Nature of the test: HMVEC MTT proliferation assay. The class given is cell-based. The conditions noted are these: control PI=1, 3 to 4 days, MTT, mean ± s.e.m.; for Proliferation index (PI), baseline (single stimulus): no growth factor. How it is done:
(§1) First, HMVEC and HLEC were seeded at 5 × 10^3 cells/well in EBM-2 + 1% FCS in a 96-well plate, whereas MDA-MB-231 were starved of growth factors overnight by replacing their growth medium with DMEM (serum-free) prior to seeding the tumor cells at 15 × 10^2 cells/well in DMEM + 1% FCS. As for the rest of the assay, the same protocol applies to all cells. Once adherent, cells were incubated with different concentrations of the peptides CXCL4^47–70 and CXCL4L1^47–70 as single stimuli or in combination with recombinant human EGF (3 ng/ml; R&D Systems, Minneapolis, MN) at 37°C/5% CO2. All conditions were tested in triplicate or quadruplicate. After 3 to 4 days, stimulation medium was removed and a sterile MTT solution was added [0.04 g/100 ml thiazolyl blue (Sigma-Aldrich, St. Louis, MO) in 20% PBS/80% RPMI without phenol red (Lonza)] for 3 to 4 hours. The formed formasan crystals were dissolved by replacing the MTT solution with acidic propanol (0.04 M HCl, 0.1% (v/v) Nondet P-40 in absolute isopropanol) and shaking the plate, shielded from light, for 10 minutes. Optical density (OD) was determined at 570 nm and 630 nm. The obtained ODs were processed to proliferation indexes (PI), expressed relative to appropriate buffer controls, i.e. ΔOD570–630X over ΔOD570–630CO.

Test [3] relates to human dermal lymphatic microvascular endothelial cells (HLEC). As to the kind of experiment: HLEC MTT proliferation assay. The test is classed as cell-based. The conditions noted are these: control PI=1, 3 to 4 days, MTT, mean ± s.e.m., n=4. As to the method: as §1
In test [4] the test system is MDA-MB-231 breast tumors in SCID mice. As to the kind of experiment: MDA-MB-231 tumor growth in SCID mice. Conditions: 2.5 μg intratumoral 3×/week from day 3, mean ± s.e.m., n=10; for tumor volume (external), day 11 / mean tumor volume (external), day 25: calipers; for tumor volume (external), day 11: vehicle 176 ± 56, p<0.001 (CXCL4^47–70), p=0.007 (CXCL4L1^47–70); for mean tumor volume (external), day 25: vehicle 1116 ± 149, p=0.121 (CXCL4L1^47–70); for mean tumor volume (external), day 25 / resected tumor mass, day 27 or 28: p=0.002 (CXCL4^47–70); for resected tumor volume, day 27 or 28: vehicle 845 ± 177, p=0.001 (CXCL4^47–70), p=0.256 (CXCL4L1^47–70); for resected tumor mass, day 27 or 28: vehicle 1464 ± 277, p=0.091 (CXCL4L1^47–70). The test is classed as in vivo. How it is done:
SCID mice were bred in specific-pathogen-free conditions in the Experimental Animal Breeding Facility of the University of Leuven (KU Leuven) and fed sterilized food and water. All animal experiments were conducted in agreement with the Ethical Committee for Animal Care and Use of the KU Leuven and executed under license number LA1210243. 7- to 10-week-old SCID mice were used throughout the experiments. MDA-MB-231 cells in log growth phase (6 × 10^6 cells resuspended in 200 μl of PBS) were injected subcutaneously (s.c.) on day 0 in the right dorsal flank. Animals were treated by intratumoral injection with control, 2.5 μg synthetic human CXCL4^47–70 peptide or synthetic human CXCL4L1^47–70 peptide three times a week starting from day 3. The external tumor volume was measured with calipers thrice a week and calculated using the formula (4πab2)/3 in which a and b are the largest and smallest radius, respectively. On day 27 or 28, mice were sacrificed and tumors were resected. The exact tumor volume of the resected tumor, based on three measured radii (a, b and c), was calculated by the formula (4πabc)/3. A portion of the tumors was stored at −70°C for generation of mRNA extracts and another part was processed for flow cytometry.

The next test relates to CCL5. As to the kind of experiment: CCL5 binding (heterodimerization) assay in 96-well plates. On the set-up: species or system human. The conditions noted are these: biotinylated peptides; 37 °C; 50 ng/ml CCL5 coated; OD450; n=3. As to the method:
GAG, EGF and CCL5 binding were quantified in 96-well plates following a similar protocol. GAG binding was evaluated by immobilizing low molecular weight heparin (Iduron, Manchester, UK) on EpranEx plates (BD Biosciences), whereas EGF as well as CCL5 recombinant human protein (R&D Systems and PeproTech, respectively) was immobilized on high protein-binding ELISA plates (Corning life sciences, Tewksbury, MA). In brief, 25 μg/ml GAG [diluted in assay buffer 100 mM NaCl, 50 mM NaAc, pH 7.2, and 0.2% (v/v) Tween-20], 2 μg/ml EGF or 50 ng/ml CCL5 (both diluted in PBS), was coated overnight at room temperature on 96-well plates. Plates were washed three times with either assay buffer or 0.5% (v/v) Tween 20 in PBS and blocked at 37°C with buffer enriched with either 0.2% (w/v) gelatin (heparin binding assay) or 0.1% (w/v) casein (EGF or CCL5 binding assay). Subsequently, a dilution curve of biotinylated CXCL4L1^47–70 and CXCL4^47–70 peptide was pipetted on the plate and incubated at 37 °C to allow interaction with heparin, EGF or CCL5. After washing, retained biotinylated peptide was detected by peroxidase-conjugated streptavidin. Peroxidase activity was quantified by measuring the conversion of 3,3′,5,5′-tetramethylbenzidine (Sigma-Aldrich) at 450 nm.

[5] abbreviates: peptide 0.3 μg/ml + EGF 3 ng/ml, n=7, p=0.015 (CXCL4^47–70), p=0.041 (CXCL4L1^47–70) versus EGF.
[6] abbreviates: peptide 1 μg/ml + EGF 3 ng/ml, n=7, p=0.003 (CXCL4^47–70), p=0.015 (CXCL4L1^47–70) versus EGF.
The mark [7] stands for this setting: peptide 1 μg/ml, n=8, p=0.011 (CXCL4^47–70), p=0.043 (CXCL4L1^47–70).
Where [8] appears, read: peptide 3 μg/ml + EGF 3 ng/ml, n=6, p=0.008 (CXCL4^47–70), n=7, p=0.041 (CXCL4L1^47–70) versus EGF.
[9] abbreviates: peptide 3 μg/ml, n=6, p=0.001 (CXCL4^47–70), n=7, p=0.009 (CXCL4L1^47–70).
[10] abbreviates: peptide 0.3 μg/ml, p=0.030 (CXCL4^47–70), p=0.312 (CXCL4L1^47–70).

Where no end group is shown, it is not given here.

Regarding “CXCL4L1^47–70: synthetic human carboxy-terminal peptide restricted to the last 24 amino acids of CXCL4L1, Fmoc chemistry”, the “GM7373 proliferation relative to EGF alone (100%)” value in test [1] was 49 ± 1%. Further, the “GM7373 proliferation relative to FGF2 alone (100%)” value in test [1] turned out to be 47 ± 4%. Besides, the figures for the “Proliferation index (PI), EGF-stimulated” value in test [2] (setting [5]), in test [2] (setting [6]) and in test [2] (setting [8]) were 1.17 ± 0.06, 1.05 ± 0.07 and 0.98 ± 0.13, respectively. The entries for the “Proliferation index (PI), baseline (single stimulus)” value in test [2] (setting [7]) and in test [2] (setting [9]) were 0.86 ± 0.12 and 0.70 ± 0.09, respectively. Moreover, the “Proliferation index (PI), baseline” value amounted to 0.90 ± 0.05 in test [3] (setting [10]); 0.82 ± 0.05 in test [3] (peptide 1 μg/ml, p=0.030); 0.66 ± 0.04 in test [3] (peptide 3 μg/ml, p=0.030). Also, the “tumor volume (external), day 11” value in test [4] stood at 61 ± 23 mm^3. In addition, in test [4], the “mean tumor volume (external), day 25” value was found to be 719 ± 153 mm^3. Moreover, in test [4], the “resected tumor volume, day 27 or 28” value turned out to be 647 ± 161 mm^3. In test [4], the “resected tumor mass, day 27 or 28” value is 953 ± 208 mg. The “binding to CCL5-coated plate” value in the test with CCL5 is “directly and equally well interacted with CCL5”.

Regarding “CXCL4^47–70: synthetic human carboxy-terminal peptide restricted to the last 24 amino acids of CXCL4, Fmoc chemistry (NGRKICLDLQAPLYKKIIKKLLES; not fully specified (N-terminus))”, in test [1], the “GM7373 proliferation relative to EGF alone (100%)” value is 74 ± 3%. In addition, the “GM7373 proliferation relative to FGF2 alone (100%)” value in test [1] turned out to be 28 ± 10%. The “Proliferation index (PI), EGF-stimulated” value in test [2] (setting [5]) is 1.13 ± 0.07; in test [2] (setting [6]) it was 0.96 ± 0.06; in test [2] (setting [8]), 0.93 ± 0.07. Further, the figures for the “Proliferation index (PI), baseline (single stimulus)” value in test [2] (setting [7]) and in test [2] (setting [9]) were 0.77 ± 0.08 and 0.59 ± 0.09, respectively. In addition, the “Proliferation index (PI), baseline” value in test [3] (setting [10]) is listed as 0.70 ± 0.06; in test [3] (peptide 1 μg/ml, p=0.030), 0.69 ± 0.06; in test [3] (peptide 3 μg/ml, p=0.030) it was 0.37 ± 0.04. In addition, the “tumor volume (external), day 11” value in test [4] was 24 ± 6 mm^3. Also, the “mean tumor volume (external), day 25” value in test [4] is reported as 438 ± 97 mm^3. For the same substance, the “resected tumor volume, day 27 or 28” value in test [4] came out at 308 ± 61 mm^3. Further, the “resected tumor mass, day 27 or 28” value in test [4] is listed as 523 ± 108 mg. Moreover, the “binding to CCL5-coated plate” value with CCL5 was “directly and equally well interacted with CCL5”.
